Data from US20070243217A1, “Film-Shaped Medicament for Oral Administration Containing Estriol” (HF Arzneimittelforschung GmbH, priority 2004, published 2007).

What was measured:
[1] = Estriol levels in the blood over time with the same treatment and dose; format: in vivo; conditions: vaginal application
Description: Thus, even in the case of long-term use, there should be no unwanted absorption conditions at the oral mucosa as the application site that show a change for the worse, provided that the treatment of the climacteric complaints is carried out using a film-shaped medicament according to the invention.

[2] = Changes of the oral mucosa on buccal or sublingual administration of estriol; format: in vivo

estriol levels in the blood after some time [1]: drop measurably after some time
SMILES: C[C@]12CC[C@@H]3c4ccc(O)cc4CC[C@H]3[C@@H]1C[C@@H](O)[C@@H]2O [estriol, (16α, 17β)-estra-1,3,5(10)-triene-3,16,17-triol]
changes of the oral mucosa analogous to proliferation and hornification of the upper cell layers in the vagina [2]: no changes of the oral mucosa
